According to patent US10987316B2, “Compositions and methods for transdermal delivery of tertiary amine drugs” (priority 2013, dated 2021):

Test: In vitro flux of rivastigmine liquid across human skin only
Assay type: in vitro ADME
Conditions: rivastigmine liquid infinite dose 0.5 ml/cm^2
Description: The flux of rivatsigmine liquid (“infinite-dose” of 0.5 ml/cm^2) across systems prepared using different rate controlling membranes (with different vinyl acetate contents and different thicknesses) with or without a 5 mg/cm^2 silicone face adhesive was assessed in an in vitro flux study, as shown below.

SMILES: CCN(C)C(=O)Oc1cccc([C@H](C)N(C)C)c1 [Rivastigmine, (S)-3-[1-(dimethylamino)ethyl]phenyl ethylmethylcarbamate]
- Rivastigmine steady-state flux, human skin only: 32 ± 14 μg/cm^2/hr
